Results taken from ChEMBL document CHEMBL3526157, “Unique metabolic pathway of [(14)C]lenvatinib after oral administration to male cynomolgus monkey” (Drug Metab Dispos, 2012).
Blank lines part the entries; values can stand above or below the molecule they belong to.

How the values were obtained:
Cynomolgus monkey [1] = test: Drug retention time in cynomolgus monkey treated with 30 mg/kg, po of [14C]lenvatinib administered on day 1, 2 and 4 by radio-LC/MS analysis; assay type: ADME, organism-based, Macaca fascicularis; design: dose 30 mg/kg, route oral; conditions: in vivo
Cynomolgus monkey [2] = test: Drug metabolism in cynomolgus monkey treated with 30 mg/kg, po of [14C]lenvatinib administered on day 1, 2 and 4 by radio-LC/MS analysis; assay type: ADME, organism-based, Macaca fascicularis; design: dose 30 mg/kg, route oral; conditions: in vivo
[3] = Drug metabolism in potassium phosphate buffer at pH 7.4 assessed as decrease of parent compound at 50 uM in presence of NAC; assay type: physicochemical; conditions: pH 7.4, 50 µM
[4] = Drug metabolism in potassium phosphate buffer at pH 7.4 assessed as decrease of parent compound at 50 uM in presence of GSH; assay type: physicochemical; conditions: pH 7.4, 50 µM
[5] = Drug metabolism in Sprague-Dawley rat liver S9 fraction assessed as 5-(3-(6-carbamoyl-7-methoxyquinolin-4-ylthio)-1-(carboxymethylamino)-1-oxopropan-2-ylamino)-[…]-5-oxopentanoic acid level at 50 uM up to 60 mins by HPLC analysis in presence of GSH and NADPH; conditions: s9, 1 h
[6] = Drug metabolism in cynomolgus monkey liver S9 fraction assessed as 5-(3-(6-carbamoyl-7-methoxyquinolin-4-ylthio)-1-(carboxymethylamino)-1-oxopropan-2-ylamino)-[…]-5-oxopentanoic acid level at 50 uM up to 120 mins by HPLC analysis in presence of GSH and absence of NADPH; assay type: ADME, Macaca fascicularis; conditions: s9, 2 h
[7] = Drug metabolism in cynomolgus monkey liver S9 fraction assessed as 5-(3-(6-carbamoyl-7-methoxyquinolin-4-ylthio)-1-(carboxymethylamino)-1-oxopropan-2-ylamino)-[…]-5-oxopentanoic acid level at 50 uM up to 120 mins by HPLC analysis in presence of GSH and NADPH; assay type: ADME, subcellular, Macaca fascicularis; conditions: s9, 2 h
[8] = Drug metabolism in potassium phosphate buffer at pH 7.4 assessed as decrease of parent compound at 50 uM in presence of cysteine; assay type: physicochemical; conditions: pH 7.4, 50 µM
[9] = Drug metabolism in human liver S9 fraction assessed as 5-(3-(6-carbamoyl-7-methoxyquinolin-4-ylthio)-1-(carboxymethylamino)-1-oxopropan-2-ylamino)-[…]-5-oxopentanoic acid level at 50 uM up to 120 mins by HPLC analysis in presence of GSH and absence of NADPH; assay type: ADME, tissue-based; conditions: s9, 2 h
[10] = Drug metabolism in human liver S9 fraction assessed as decrease of parent compound level at 50 uM up to 120 mins by HPLC analysis in presence of GSH and absence of NADPH; assay type: ADME, tissue-based; conditions: s9, 2 h, TDE = time-dependent effect
[11] = Drug metabolism in Sprague-Dawley rat liver S9 fraction assessed as 5-(3-(6-carbamoyl-7-methoxyquinolin-4-ylthio)-1-(carboxymethylamino)-1-oxopropan-2-ylamino)-[…]-5-oxopentanoic acid level at 50 uM up to 60 mins by HPLC analysis in presence of GSH and absence of NADPH; conditions: s9, 1 h
[12] = Drug metabolism in cynomolgus monkey liver S9 fraction assessed as decrease of parent compound level at 50 uM up to 120 mins by HPLC analysis in presence of GSH and NADPH; assay type: ADME, subcellular, Macaca fascicularis; conditions: s9, 2 h, TDE = time-dependent effect
[13] = Drug metabolism in human liver S9 fraction assessed as decrease of parent compound level at 50 uM up to 120 mins by HPLC analysis in presence of GSH and NADPH; assay type: ADME, subcellular; conditions: s9, 2 h, TDE = time-dependent effect
[14] = Drug metabolism in human liver S9 fraction assessed as 5-(3-(6-carbamoyl-7-methoxyquinolin-4-ylthio)-1-(carboxymethylamino)-1-oxopropan-2-ylamino)-[…]-5-oxopentanoic acid level at 50 uM up to 120 mins by HPLC analysis in presence of GSH and NADPH; assay type: ADME, subcellular; conditions: s9, 2 h
[15] = Drug metabolism in cynomolgus monkey liver S9 fraction assessed as decrease of parent compound level at 50 uM up to 120 mins by HPLC analysis in presence of GSH and absence of NADPH; assay type: ADME, tissue-based, Macaca fascicularis; conditions: s9, 2 h, TDE = time-dependent effect
[16] = Drug metabolism in Sprague-Dawley rat liver S9 fraction assessed as decrease of parent compound level at 50 uM up to 60 mins by HPLC analysis in presence of GSH and absence of NADPH; conditions: s9, 1 h, TDE = time-dependent effect
[17] = Drug metabolism in Sprague-Dawley rat liver S9 fraction assessed as decrease of parent compound level at 50 uM up to 120 mins by HPLC analysis in presence of GSH and NADPH; assay type: ADME, subcellular; conditions: s9, 2 h, TDE = time-dependent effect

- Retention_time (Cynomolgus monkey [1]): 13.5 min
- Drug metabolism (Cynomolgus monkey [2]): metabolite_detected
Compound: COc1cc2nccc(N[C@@H](CSSC[C@H](Nc3ccnc4cc(OC)c(C(N)=O)cc34)C(=O)O)C(=O)O)c2cc1C(N)=O

- Retention_time (Cynomolgus monkey [1]): 14.5 min
- Drug metabolism (Cynomolgus monkey [2]): metabolite_detected
Compound: COc1cc2nccc(N[C@@H](CS)C(=O)O)c2cc1C(N)=O

- Retention_time (Cynomolgus monkey [1]): 17.1 min
- Drug metabolism (Cynomolgus monkey [2]): metabolite_detected
Compound: COc1cc2nccc(N[C@@H](CSc3ccnc4cc(OC)c(C(N)=O)cc34)C(=O)O)c2cc1C(N)=O

- Drug metabolism [3]: metabolite_detected
- Drug metabolism [4]: metabolite_detected
- Drug metabolism [5]: metabolite_detected
- Drug metabolism [6]: metabolite_detected
- Drug metabolism [7]: metabolite_detected
- Drug metabolism [8]: metabolite_detected
- Drug metabolism [9]: metabolite_detected
- Drug metabolism [10]: tde
- Drug metabolism [11]: metabolite_detected
- Drug metabolism [12]: tde
- Drug metabolism [13]: tde
- Retention_time (Cynomolgus monkey [1]): 46.4 min
- Drug metabolism [14]: metabolite_detected
- Drug metabolism [15]: tde
- Drug metabolism [16]: tde
- Drug metabolism [17]: tde
Compound: COc1cc2nccc(Oc3ccc(NC(=O)NC4CC4)c(Cl)c3)c2cc1C(N)=O.CS(=O)(=O)O [LENVATINIB MESYLATE]
